Results taken from patent publication US20120065187A1 (ALCON RESEARCH, LTD, priority 2008, published 2012).

How the values were obtained:
[1] = tested on: CD-1 mice; experiment: Model of scratching induced by histamine in CD-1 mice (assessment of H4 antagonism); format: in vivo; conditions: 30 mg/kg oral gavage 30 min before i.d. histamine; bouts counted for 20 minutes; female CD-1 mice
Experimental: Assessment of H4 Antagonism—Model of Scratching Induced by Histamine in CD-1 mice.
Female CD-1 mice (Charles River, Hollister, Calif.), approximately 10 weeks old were housed under controlled conditions (12 h light: 12 h dark, 21° C.) and allowed ad libitum access to food (Purina LabDiet 5P14) and water. Animals were deprived of access to food and water for 1 hour during the experimental itch protocol. All studies were performed under the guidelines of the Institutional Animal Care and Use Committee of Kalypsys, Inc.
At least 24 hours prior to study initiation, the hair on the rostral dorsum of the animal was clipped to clear a location for intradermal (i.d.) injection of pruritogen (histamine, dissolved in Dulbecco's PBS [pH 7.4] at a concentration of 10 μmol per 20 μL). Animals were dosed by oral gavage with vehicle (9/0.5/0.5/90 PEG-400/Tween-80/PVP-K30/1% carboxymethylcellulose in water) or test compounds (formulated as suspensions in vehicle) at 30 mg/kg in 200 μL by means of a 20 gauge 1.5″ feeding needle affixed to a 1 mL syringe. There were 8 mice per study group. Thirty minutes after oral dosing, animals were injected i.d. with 20 μL of histamine. Immediately afterward animals were placed into individual sections of a standard acrylic cage for observation, which was recorded digitally for a 20 minute period by video cameras (Panasonic SDR-S70/PC) for later review.
Quantitation of induced itch was measured as described previously (Bell, J. K. et al., British Journal of Pharmacology, 142:374-380, 2004) by counting the number of scratching bouts per animal in the 20 minute period after i.d. injection. A scratching bout was defined as three rapid scratch movements of the hind paw in the area of the injection site. Activity with the fore paws was deemed to be grooming and not scratching, and thus was not counted. All data were analyzed using GraphPad Prism (San Diego, Calif.) software, and reported as mean percentage reduction in scratching bouts versus vehicle control. The significance of antagonist effect on agonist-induced itching was analyzed using the nonparametric Mann-Whitney test with P values <0.05 being designated as statistically significant.
Data reported as NT refers to the example having been not tested. It is expected that these compounds when tested will be active and will have utility similar to those that have been tested. In Table 2 below, entries with superscript “1” are statistically significant according to the criteria outlined in the protocol above. Entries with superscript “2” are examples that have been tested on two separate days and the results reported below are the mean of the two experiments

[2] = tested on: Hartley VAF outbred guinea pigs; experiment: Allergic conjunctivitis in passively sensitized guinea pigs (conjunctival EPO activity); format: in vivo; parameters: key: +: a ≦0.1% qd dose was statistically equivalent to dexamethasone with respect to reduction of EPO activity; −: the compound was statistically inferior to dexamethasone and not different than vehicle; conditions: ≦0.1% qd topical, 1 hour prior to ovalbumin challenge; reduction of conjunctival EPO activity vs dexamethasone
Experimental: Male Hartley VAF outbred guinea pigs were passively sensitized to ovalbumin by a single OD subconjunctival injection of undiluted guinea pig anti-ovalbumin antiserum 24 hours before OD topical challenge with 500 μg ovalbumin in saline. Control animals were injected with saline only and challenged with ovalbumin. To determine acute phase drug efficacy, 30 min after challenge animals were clinically scored by a masked observer for severity of signs of conjunctivitis based on a standard scale. Test compounds were administered topically 1 hour prior to challenge (QD protocol), or 1 hour prior to challenge and again 8 hours after challenge (BID protocol). Twenty-four hours after challenge, animals were euthanized and conjunctivae were harvested for determination of tissue eosinophil peroxidase (EPO) concentration as a marker of allergic inflammation. Homogenates of freshly collected tissues were prepared by shaking the tissues in 2 mL round-bottom tubes containing 0.5 mL of homogenization buffer (50 mM Tris HCl, pH 8.0, 6 mM KBr) and one 5-mm stainless steel bead on a Qiagen TissueLyser at 30 Hz for 5 min. Homogenates were frozen and thawed once, then centrifuged at 10,000 rpm for 5 min. EPO activity in supernatants was measured by reacting diluted homogenates with a solution of 6 mM o-phenylenediamine substrate and 8.8 mM H2O2 in homogenization buffer for 3 min. The reaction was stopped with 4M H2SO4 and absorbances were measured at […] on a spectrophotometric plate reader. Total EPO in samples was calculated from a standard curve of recombinant human EPO in each assay. EPO activity was normalized to total protein concentration (Pierce BCA assay) in supernatants. Background EPO activity was determined from the unsensitized, antigen-challenged control group. Percent inhibition was calculated from the sensitized, antigen-challenged, vehicle-treated control group in each experiment. Ovalbumin-injected animals dosed topically with 0.1% w/v dexamethasone (dex) served as positive control. Groups were compared by ANOVA with Dunnett's or Tukey's post-hoc tests where appropriate with significance assigned at the 95% confidence level.
The table below summarizes the results.

SMILES: Clc1ccc2nc(N3CCNCC3)c3nncn3c2c1 [Example 57, 8-chloro-4-(piperazin-1-yl)-[1,2,4]triazolo[4,3-a]quinoxaline]
- Scratching Bouts (% change from vehicle control) [1]: −66^1%
- QD activity [2]: +

SMILES: CN1CCN(c2nc3ccc(Cl)cc3n3cnnc23)CC1 [Example 55, 8-chloro-4-(4-methylpiperazin-1-yl)-[1,2,4]triazolo[4,3-a]quinoxaline]
- Scratching Bouts (% change from vehicle control) [1]: −65^1,2%
- QD activity [2]: +
